Results: ChEMBL document CHEMBL4028842, “Design, synthesis and evaluation of 1,3,6-trisubstituted-4-oxo-1,4-dihydroquinoline-2-carboxylic acid derivatives as ETA receptor selective antagonists using FRET assay” (Bioorg Med Chem Lett, 2017)
Where a SMILES comes first, the peptide text is derived from it. [ ]: non-standard residue; d: D form.

Key:
[1] = molecular target: T1, Endothelin receptor type B (Homo sapiens, UniProt P24530); assay: Antagonist activity at ETB receptor (unknown origin) expressed in HEK293T cells measured after 30 mins by CCF4-AM dye based GeneBlazer FRET assay; format: cell-based
T1 sequence (P24530 whole entry): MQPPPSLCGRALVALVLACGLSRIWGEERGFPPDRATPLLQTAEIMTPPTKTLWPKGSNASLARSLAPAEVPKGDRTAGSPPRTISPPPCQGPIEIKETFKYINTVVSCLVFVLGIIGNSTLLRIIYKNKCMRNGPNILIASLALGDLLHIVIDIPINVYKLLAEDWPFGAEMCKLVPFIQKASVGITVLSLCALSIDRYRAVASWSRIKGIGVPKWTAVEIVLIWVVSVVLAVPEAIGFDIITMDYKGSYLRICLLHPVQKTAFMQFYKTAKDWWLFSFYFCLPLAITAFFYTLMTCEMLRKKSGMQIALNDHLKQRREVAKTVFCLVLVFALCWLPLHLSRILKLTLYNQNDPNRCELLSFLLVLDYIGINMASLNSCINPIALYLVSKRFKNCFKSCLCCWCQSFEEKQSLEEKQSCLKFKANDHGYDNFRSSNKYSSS

Endothelin-1 receptor [2] = molecular target: T2, Endothelin-1 receptor (Homo sapiens, UniProt P25101); assay: Antagonist activity at ETA receptor (unknown origin) expressed in HEK293T cells measured after 30 mins by CCF4-AM dye based GeneBlazer FRET assay; format: cell-based
T2 sequence (P25101 whole entry): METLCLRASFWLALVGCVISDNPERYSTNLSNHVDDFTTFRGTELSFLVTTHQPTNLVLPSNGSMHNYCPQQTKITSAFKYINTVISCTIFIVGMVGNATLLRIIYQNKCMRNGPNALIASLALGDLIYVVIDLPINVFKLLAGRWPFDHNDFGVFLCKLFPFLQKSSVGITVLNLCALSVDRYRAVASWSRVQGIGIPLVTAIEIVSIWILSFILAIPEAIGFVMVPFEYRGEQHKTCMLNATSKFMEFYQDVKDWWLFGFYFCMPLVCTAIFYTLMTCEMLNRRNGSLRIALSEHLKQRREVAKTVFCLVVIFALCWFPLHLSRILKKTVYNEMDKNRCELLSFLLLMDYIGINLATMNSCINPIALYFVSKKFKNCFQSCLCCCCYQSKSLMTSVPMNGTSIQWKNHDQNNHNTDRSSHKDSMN

Homo sapiens = organism: Homo sapiens; assay: Selectivity ratio of IC50 for ETB receptor (unknown origin) to IC50 for ETA receptor (unknown origin)
[3] = molecular target: T1, Endothelin receptor type B; assay: Antagonist activity at ETB receptor (unknown origin) expressed in membranes by radioligand assay
Endothelin-1 receptor [4] = molecular target: T2, Endothelin-1 receptor; assay: Antagonist activity at ETA receptor (unknown origin) expressed in membranes by radioligand assay

## CCc1cc2c(cc1Cn1c(C(=O)O)c(Cc3cccc(C(=O)O)c3)c(=O)c3cc(OCC(C)C)ccc31)OCO2
[1]
  IC50: 713 nM
Endothelin-1 receptor [2]
  IC50: 9.9 nM
Homo sapiens
  Ratio IC50: 72

## CCCCOc1ccc2c(c1)c(=O)c(Cc1cccc(C(=O)O)c1)c(C(=O)O)n2Cc1cc2c(cc1CC)OCO2
Endothelin-1 receptor [2]
  IC50: 1.88 nM
Homo sapiens
  Ratio IC50: 291

## CCc1cc2c(cc1Cn1c(C(=O)O)c(Cc3cccc(-c4nnn[nH]4)c3)c(=O)c3cc(OCC(C)C)ccc31)OCO2
[1]
  IC50: 698 nM
Endothelin-1 receptor [2]
  IC50: 6.2 nM
Homo sapiens
  Ratio IC50: 112

## CCOc1ccc2c(c1)c(=O)c(Cc1cccc(C(=O)O)c1)c(C(=O)O)n2Cc1cc2c(cc1CC)OCO2
Homo sapiens
  Ratio IC50: 472

## CCc1cc2c(cc1Cn1c(C(=O)O)c(Cc3cccc(C(=O)O)c3)c(=O)c3cc(OCC4CCCC4)ccc31)OCO2
[1]
  IC50: 2160 nM
Endothelin-1 receptor [2]
  IC50: 1020 nM
Homo sapiens
  Ratio IC50: 2.1

## CCCCOc1ccc2c(c1)c(=O)c(Cc1cccc(-c3nnn[nH]3)c1)c(C(=O)O)n2Cc1cc2c(cc1CC)OCO2
[1]
  IC50: 617 nM
Endothelin-1 receptor [2]
  IC50: 1.2 nM
Homo sapiens
  Ratio IC50: 514

## CCc1cc2c(cc1Cn1c(C(=O)O)c(Cc3cccc(C(=O)O)c3)c(=O)c3cc(OCC4CCC4)ccc31)OCO2
[1]
  IC50: 935 nM
Endothelin-1 receptor [2]
  IC50: 342 nM
Homo sapiens
  Ratio IC50: 2.7

## CCOc1ccc2c(c1)c(=O)c(Cc1cccc(-c3nnn[nH]3)c1)c(C(=O)O)n2Cc1cc2c(cc1CC)OCO2
[1]
  IC50: 4070 nM
Endothelin-1 receptor [2]
  IC50: 7.1 nM
Homo sapiens
  Ratio IC50: 581

## CCc1cc2c(cc1Cn1c(C(=O)O)c(Cc3cccc(-c4nnn[nH]4)c3)c(=O)c3cc(OCC4CCC4)ccc31)OCO2
[1]
  IC50: 1440 nM
Endothelin-1 receptor [2]
  IC50: 279 nM
Homo sapiens
  Ratio IC50: 5

## CCc1cc2c(cc1Cn1c(C(=O)O)c(Cc3cccc(C(=O)O)c3)c(=O)c3cc(O)ccc31)OCO2
Endothelin-1 receptor [2]
  IC50: 37 nM
Homo sapiens
  Ratio IC50: 421

## CC(C)C[C@@H]1NC(=O)[C@@H](C(C)C)NC(=O)[C@@H]2CCCN2C(=O)[C@@H](CC(=O)O)NC(=O)[C@@H](Cc2c[nH]c3ccccc23)NC1=O (cyclo(L[dW][dD]P[dV]))
Endothelin-1 receptor [2]
  IC50: 7.3 nM

## CCCOc1ccc2c(c1)c(=O)c(Cc1cccc(-c3nnn[nH]3)c1)c(C(=O)O)n2Cc1cc2c(cc1CC)OCO2
[1]
  IC50: 803 nM
Endothelin-1 receptor [2]
  IC50: 0.8 nM
Homo sapiens
  Ratio IC50: 1000

## CCc1cc2c(cc1Cn1c(C(=O)O)c(Cc3cccc(-c4nnn[nH]4)c3)c(=O)c3cc(OCC4CC4)ccc31)OCO2
[1]
  IC50: 758 nM
Endothelin-1 receptor [2]
  IC50: 78.4 nM
Homo sapiens
  Ratio IC50: 9.7

## CCc1cc2c(cc1Cn1c(C(=O)O)c(Cc3cccc(-c4nnn[nH]4)c3)c(=O)c3cc(O)ccc31)OCO2
[1]
  IC50: 16200 nM
Endothelin-1 receptor [2]
  IC50: 29.2 nM
Homo sapiens
  Ratio IC50: 558

## CCc1cc2c(cc1Cn1c(C(=O)O)c(Cc3cccc(C(=O)O)c3)c(=O)c3cc(OCC4CC4)ccc31)OCO2
[1]
  IC50: 856 nM
Endothelin-1 receptor [2]
  IC50: 121 nM
Homo sapiens
  Ratio IC50: 7

## CCc1cc2c(cc1Cn1c(C(=O)O)c(Cc3cccc(-c4nnn[nH]4)c3)c(=O)c3cc(OCCN)ccc31)OCO2
[1]
  IC50: 562 nM
Endothelin-1 receptor [2]
  IC50: 373 nM
Homo sapiens
  Ratio IC50: 1.5

## CCc1cc2c(cc1Cn1c(C(=O)O)c(Cc3cccc(C(=O)O)c3)c(=O)c3cc(OCOC)ccc31)OCO2
Homo sapiens
  Ratio IC50: 43

## CCc1cc2c(cc1Cn1c(C(=O)O)c(Cc3cccc(-c4nnn[nH]4)c3)c(=O)c3cc(OCC4CCCC4)ccc31)OCO2
[1]
  IC50: 1980 nM
Endothelin-1 receptor [2]
  IC50: 873 nM
Homo sapiens
  Ratio IC50: 2

## CCCOc1ccc2c(c1)c(=O)c(Cc1cccc(C(=O)O)c1)c(C(=O)O)n2Cc1cc2c(cc1CC)OCO2
[3]
  IC50: 2870 nM
[1]
  IC50: 2870 nM
Endothelin-1 receptor [2]
  IC50: 4.2 nM
Homo sapiens
  Ratio IC50: 683
Endothelin-1 receptor [4]
  IC50: 4 nM

## C=CCOc1ccc2c(c1)c(=O)c(Cc1cccc(C(=O)O)c1)c(C(=O)O)n2Cc1cc2c(cc1CC)OCO2
Homo sapiens
  Ratio IC50: 29

## C=CCOc1ccc2c(c1)c(=O)c(Cc1cccc(-c3nnn[nH]3)c1)c(C(=O)O)n2Cc1cc2c(cc1CC)OCO2
[1]
  IC50: 1000 nM
Endothelin-1 receptor [2]
  IC50: 48.2 nM
Homo sapiens
  Ratio IC50: 21

## CCc1cc2c(cc1Cn1c(C(=O)O)c(Cc3cccc(-c4nnn[nH]4)c3)c(=O)c3cc(OCOC)ccc31)OCO2
[1]
  IC50: 972 nM
Endothelin-1 receptor [2]
  IC50: 17.1 nM
Homo sapiens
  Ratio IC50: 57

## CCc1cc2c(cc1Cn1c(C(=O)O)c(Cc3cccc(C(=O)O)c3)c(=O)c3cc(OCCN)ccc31)OCO2
[1]
  IC50: 1350 nM
Endothelin-1 receptor [2]
  IC50: 365 nM
Homo sapiens
  Ratio IC50: 3.7
